The target in this assay is human GABA A receptor α5β3γ2 (Homo sapiens (Human), UniProt P18507+P31644). The experiment in a line: [3H]flumazenil competition binding assay, human GABA A α5β3γ2 receptors expressed in HEK293 cells. The note with it: human receptor; displacement of [3H]flumazenil (0.5 nM); means of two determinations; read-out: hKi GABAAa5. In a few lines:
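Competition for [3H]flumazenil binding on membranes of HEK293 cells transiently transfected with human α5β3γ2 receptors, in Krebs-tris buffer pH 7.5.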
Turning to `Cc1onc(-c2ccc(F)c(F)c2)c1COc1ccc(C(=O)NCC(C)(C)CO)cn1` [Example 268, 6-[3-(3,4-Difluoro-phenyl)-5-methyl-isoxazol-4-ylmethoxy]-N-(3-hydroxy-2,2-dimethyl-propyl)-nicotinamide], the Ki was 3.3 nM.

With `Cc1onc(-c2ccc(F)c(F)c2)c1COc1ccc(C(=O)NCC(C)(C)O)cn1` [Example 269, 6-[3-(3,4-Difluoro-phenyl)-5-methyl-isoxazol-4-ylmethoxy]-N-(2-hydroxy-2-methyl-propyl)-nicotinamide], the Ki came out at 6.7 nM.

For `Cc1onc(-c2ccc(Cl)cc2F)c1COc1ccc(C(=O)NC(C)C)cn1` [Example 270, 6-[3-(4-Chloro-2-fluoro-phenyl)-5-methyl-isoxazol-4-ylmethoxy]-N-isopropyl-nicotinamide], the Ki was 0.4 nM. As for `COC(=O)c1ccc(OCc2c(-c3ccccn3)noc2C)nc1` [Example 271, 6-(5-Methyl-3-pyridin-2-yl-isoxazol-4-ylmethoxy)-nicotinic acid methyl ester], the figure is 3.8 nM.

With `Cc1onc(-c2ccccn2)c1COc1ccc(C(=O)NC2CCOCC2)cn1` [Example 272, 6-(5-Methyl-3-pyridin-2-yl-isoxazol-4-ylmethoxy)-N-(tetrahydro-pyran-4-yl)-nicotinamide], the Ki is 1.1 nM. Then `Cc1onc(-c2ccccn2)c1COc1ccc(C(=O)NC(C)C)cn1` [Example 273, N-Isopropyl-6-(5-methyl-3-pyridin-2-yl-isoxazol-4-ylmethoxy)-nicotinamide], with 0.6 nM; and `Cc1onc(-c2ccccn2)c1COc1ccc(C(=O)NCC(F)(F)F)cn1` [Example 275, 6-(5-Methyl-3-pyridin-2-yl-isoxazol-4-ylmethoxy)-N-(2,2,2-trifluoro-ethyl)-nicotinamide], with 1.1 nM; and `Cc1onc(-c2ccccn2)c1COc1ccc(C(=O)N2CCS(=O)(=O)CC2)cn1` [Example 276, (1,1-Dioxo-1,6-thiomorpholin-4-yl)-[6-(5-methyl-3-pyridin-2-yl-isoxazol-4-ylmethoxy)-pyridin-3-yl]-methanone], with 10.1 nM. Turning to `Cc1onc(-c2ccccn2)c1COc1ccc(C(=O)NCC2CC2)cn1` [Example 277, N-Cyclopropylmethyl-6-(5-methyl-3-pyridin-2-yl-isoxazol-4-ylmethoxy)-nicotinamide], the Ki was determined as 1.5 nM. `Cc1onc(-c2ccccn2)c1COc1ccc(C(=O)NC2CC2)cn1` [Example 278, N-Cyclopropyl-6-(5-methyl-3-pyridin-2-yl-isoxazol-4-ylmethoxy)-nicotinamide]: the Ki stood at 1.6 nM. Then `CNC(=O)c1ccc(OCc2c(-c3ccccn3)noc2C)nc1` [Example 279, Methyl-6-(5-methyl-3-pyridin-2-yl-isoxazol-4-ylmethoxy)-nicotinamide], with 1.3 nM; and `CCNC(=O)c1ccc(OCc2c(-c3ccccn3)noc2C)nc1` [Example 280, Ethyl-6-(5-methyl-3-pyridin-2-yl-isoxazol-4-ylmethoxy)-nicotinamide], with 1.1 nM; and `Cc1onc(-c2ccccn2)c1COc1ccc(C(=O)NC(C)(C)CO)cn1` [Example 281, (2-Hydroxy-1,1-dimethyl-ethyl)-6-(5-methyl-3-pyridin-2-yl-isoxazol-4-ylmethoxy)-nicotinamide], with 4 nM.

In the case of `Cc1onc(-c2ccccn2)c1COc1ccc(C(=O)N2CCSCC2)cn1` [Example 282, [6-(5-Methyl-3-pyridin-2-yl-isoxazol-4-ylmethoxy)-pyridin-3-yl]-thiomorpholin-4-yl-methanone], the Ki was 6.8 nM. Then `Cc1onc(-c2ccccn2)c1COc1ccc(C(=O)O)cn1` [Example 283, 6-(5-Methyl-3-pyridin-2-yl-isoxazol-4-ylmethoxy)-nicotinic acid], with 22.3 nM; and `Cc1onc(-c2ccccn2)c1COc1ccc(C(=O)NCCO)cn1` [Example 284, (2-Hydroxy-ethyl)-6-(5-methyl-3-pyridin-2-yl-isoxazol-4-ylmethoxy)-nicotinamide], with 0.5 nM; and `COCCNC(=O)c1ccc(OCc2c(-c3ccccn3)noc2C)nc1` [Example 285, (2-Methoxy-ethyl)-6-(5-methyl-3-pyridin-2-yl-isoxazol-4-ylmethoxy)-nicotinamide], with 1.1 nM. For the compound `COC(=O)c1ccc(OCc2c(-c3ccc(F)cn3)noc2C)nc1` [Example 286, 6-[3-(5-Fluoro-pyridin-2-yl)-5-methyl-isoxazol-4-ylmethoxy]-nicotinic acid methyl ester], the Ki amounted to 2 nM. As to `Cc1onc(-c2ccc(F)cn2)c1COc1ccc(C(=O)O)cn1` [Example 287, 6-[3-(5-Fluoro-pyridin-2-yl)-5-methyl-isoxazol-4-ylmethoxy]-nicotinic acid], the Ki was 19.2 nM. As to `Cc1onc(-c2ccc(F)cn2)c1COc1ccc(C(=O)NC2CCOCC2)cn1` [Example 288, 6-[3-(5-Fluoro-pyridin-2-yl)-5-methyl-isoxazol-4-ylmethoxy]-(tetrahydro-pyran-4-yl)-nicotinamide], the Ki came out at 0.4 nM. Then `Cc1onc(-c2ccc(F)cn2)c1COc1ccc(C(=O)NC2CC2)cn1` [Example 290, Cyclopropyl-6-[3-(5-fluoro-pyridin-2-yl)-5-methyl-isoxazol-4-ylmethoxy]-nicotinamide], with 0.6 nM; and `Cc1onc(-c2ccc(F)cn2)c1COc1ccc(C(=O)NC(C)(C)CO)cn1` [Example 291, 6-[3-(5-Fluoro-pyridin-2-yl)-5-methyl-isoxazol-4-ylmethoxy](2-hydroxy-1,1-dimethyl-ethyl)-nicotinamide], with 1.2 nM. Regarding `Cc1onc(-c2ccc(F)cn2)c1COc1ccc(C(=O)NCC2CC2)cn1` [Example 292, Cyclopropylmethyl-6-[3-(5-fluoro-pyridin-2-yl)-5-methyl-isoxazol-4-ylmethoxy]-nicotinamide], the Ki came to 0.4 nM.

For the compound `Cc1onc(-c2ccc(F)cn2)c1COc1ccc(C(=O)N2CCS(=O)(=O)CC2)cn1` [Example 293, (1,1-Dioxo-1,6-thiomorpholin-4-yl)-{6-[3-(5-fluoro-pyridin-2-yl)-5-methyl-isoxazol-4-ylmethoxy]-pyridin-3-yl}-methanone], the Ki came out at 1.2 nM. Then `Cc1onc(-c2ccc(F)cn2)c1COc1ccc(C(=O)NCC(F)(F)F)cn1` [Example 294], with 0.3 nM. On to `Cc1onc(-c2ccc(F)cn2)c1COc1ccc(C(=O)NCCO)cn1` [Example 295, 6-[3-(5-Fluoro-pyridin-2-yl)-5-methyl-isoxazol-4-ylmethoxy]-(2-hydroxy-ethyl)-nicotinamide], for which the Ki worked out at 0.4 nM. As for `Cc1onc(-c2ccc(F)cn2)c1COc1ccc(C(=O)N2CCOCC2)cn1` [Example 296, {6-[3-(5-Fluoro-pyridin-2-yl)-5-methyl-isoxazol-4-ylmethoxy]-pyridin-3-yl}-morpholin-4-yl-methanone], the figure is 4.1 nM; as for `CCNC(=O)c1ccc(OCc2c(-c3ccc(F)cn3)noc2C)nc1` [Example 297, Ethyl-6-[3-(5-fluoro-pyridin-2-yl)-5-methyl-isoxazol-4-ylmethoxy]-nicotinamide], 0.5 nM.

In the case of `CNC(=O)c1ccc(OCc2c(-c3ccc(F)cn3)noc2C)nc1` [Example 298, 6-[3-(5-Fluoro-pyridin-2-yl)-5-methyl-isoxazol-4-ylmethoxy]-methyl-nicotinamide], the Ki amounted to 0.6 nM.

For the compound `Cc1onc(-c2ccc(F)cn2)c1COc1ccc(C(=O)N[C@@H](C)C(F)(F)F)cn1` [Example 299, 6-[3-(5-Fluoro-pyridin-2-yl)-5-methyl-isoxazol-4-ylmethoxy]-N—((S)-2,2,2-trifluoro-1-methyl-ethyl)-nicotinamide], the Ki was determined as 0.5 nM. As to `COC(=O)c1ccc(OCc2c(-c3ccc(Cl)cn3)noc2C)nc1` [Example 300, 6-[3-(5-Chloro-pyridin-2-yl)-5-methyl-isoxazol-4-ylmethoxy]-nicotinic acid methyl ester], the Ki turned out to be 1.6 nM.

On to `Cc1onc(-c2ccc(Cl)cn2)c1COc1ccc(C(=O)NC2CCOCC2)cn1` [Example 301, 6-[3-(5-Chloro-pyridin-2-yl)-5-methyl-isoxazol-4-ylmethoxy]-(tetrahydro-pyran-4-yl)-nicotinamide], for which the Ki was found to be 0.3 nM. `Cc1onc(-c2ccc(Cl)cn2)c1COc1ccc(C(=O)NC(C)C)cn1` [Example 302, 6-[3-(5-Chloro-pyridin-2-yl)-5-methyl-isoxazol-4-ylmethoxy]-isopropyl-nicotinamide]: the Ki came out at 0.3 nM. Then `Cc1onc(-c2ccc(Cl)cn2)c1COc1ccc(C(=O)NC2CC2)cn1` [Example 303, 6-[3-(5-Chloro-pyridin-2-yl)-5-methyl-isoxazol-4-ylmethoxy]-cyclopropyl-nicotinamide], with 0.3 nM. As to `Cc1onc(-c2ccc(Cl)cn2)c1COc1ccc(C(=O)O)cn1` [Example 304, 6-[3-(5-Chloro-pyridin-2-yl)-5-methyl-isoxazol-4-ylmethoxy]-nicotinic acid], the Ki was found to be 3.8 nM. As for `Cc1onc(-c2ccc(Cl)cn2)c1COc1ccc(C(=O)NC(C)(C)CO)cn1` [Example 305, 6-[3-(5-Chloro-pyridin-2-yl)-5-methyl-isoxazol-4-ylmethoxy]-(2-hydroxy-1,1-dimethyl-ethyl)-nicotinamide], the figure is 0.6 nM. Regarding `Cc1onc(-c2ccc(Cl)cn2)c1COc1ccc(C(=O)NCC2CC2)cn1` [Example 306, 6-[3-(5-Chloro-pyridin-2-yl)-5-methyl-isoxazol-4-ylmethoxy]-cyclopropylmethyl-nicotinamide], the Ki came to 0.3 nM. Take `Cc1onc(-c2ccc(Cl)cn2)c1COc1ccc(C(=O)N2CCS(=O)(=O)CC2)cn1` [Example 307, {6-[3-(5-Chloro-pyridin-2-yl)-5-methyl-isoxazol-4-ylmethoxy]-pyridin-3-yl}-(1,1-dioxo-1,6-thiomorpholin-4-yl)-methanone]: the Ki is 0.6 nM. Then `Cc1onc(-c2ccc(Cl)cn2)c1COc1ccc(C(=O)NCC(F)(F)F)cn1` [Example 308, 6-[3-(5-Chloro-pyridin-2-yl)-5-methyl-isoxazol-4-ylmethoxy]-(2,2,2-trifluoro-ethyl)-nicotinamide], with 0.2 nM.

Source of the values: patent US8846719B2, “Isoxazolo-pyridine derivatives” (Roche Palo Alto LLC, priority 2007, dated 2014).
